According to patent publication US20080223379A1, “METHODS AND COMPOSITIONS FOR THE TREATMENT OR PROPHYLAXIS OF TENDON AND LIGAMENT INJURY” (DOBAVET GmbH, priority 2007, published 2008):

Test system: tendon tissue damaged due to ruptured tendon fibrils and hematoma
Test: Oral calcium dobesilate therapy of tendon damage in horses, sonographic follow-up
Assay type: in vivo, horse
Conditions: adult horses; 1400 mg with the food twice a day (corresponding to 4 mg/kg body weight/day); four months; sonography after one, two and four months; horses walked
Procedure: Calcium dobesilate was administered with the food in a dose of 1400 mg per adult horse, twice a day each (corresponding to 4 mg/kg body weight/day). The therapy is carried out for four months. Therapy progress is documented sonographically after one month, after two months and after four months. During therapy, the horses are walked.

Q: `O=S(=O)([O][Ca][O]S(=O)(=O)c1cc(O)ccc1O)c1cc(O)ccc1O` [Calcium dobesilate, calcium dobesilate] was tested. Which “Sonographic therapy progression (structure and density of the tendon in the ultrasound image)” value did it give?
A: the tendon sections hypoechogenic at the beginning of therapy show a physiological structure and density of the tendon in the ultrasound image at the end of therapy
